The record followed here is patent US8710097B2, “Flavonoid dimers and methods of making and using such” (The Hong Kong Polytechnic University, priority 2006, dated 2014).

Several values for one entry are separate records, joined by “and”; a condition that tells them apart may be missing. Identical values can stand only once.

Data set [1] deals with tested MDR cell lines (drug resistant breast cancer and leukemia cells). It is filed as cell-based. The source says:
Cell proliferation assay.

In the next data set the test system is LePentR50 promastigotes. Put plainly: Pentamidine accumulation assay by HPLC. The settings on record: 0.84 mM pentamidine, 3 hr. It is filed as cell-based, Leishmania enriettii. The protocol: The effect of flavonoid dimers on accumulation of pentamidine was investigated. […] After 3 hrs of incubation, the parasites were washed three times with cold PBS, pH 7.4. The cell pellet was then dissolved in 350 μL 75% acetonitrile and lysed by repeated freeze-thaw cycles. After lysing, the lysed cell suspension was centrifuged at 14,000 g at 4° C. for 10 min. The supernatant was collected and ready for determining pentamidine concentration using HPLC (Agilent 1100 Series). The pentamidine pools were analyzed on Zorbax ODS C18 column (4.6 mm×25 cm, 5-micron) kept at 40° C. The mobile phase consisted of water (10 mM tetramethylammonium chloride (TMAC), 10 mM sodium heptanesulphonate (SHS), 4.2 mM phosphoric acid (PA)) for pump A and 75% acetonitrile (ACN) in water (10 mM TMAC, 10 mM SHS, 4.2 mM PA) for pump B. The column was equilibrated at 40° C. overnight before analyses. Using a flow rate of 1.0 mL/min and signal at 265 nm, analyses were made at 58% pump A and 42% pump B. The retention time of pentamidine is 3.2 min. Compound 9d would not be eluted out under these conditions. To generate a standard curve, a 200 μM stock solution of pentamidine isethionate salt were prepared by dissolving 2.5 mg pentamidine isethionate salt in 21 mL 75% ACN (10 mM TMAC, 10 mM SHS, 4.2 mM PA). Concentration of 100, 50, 25 and 13 μM were then made by serial dilution, allowing the generation of standard curve.

The subject of data set [2] is SSG-resistant L. donovani Ld39 promastigotes. Briefly: microbe, parasite or virus in culture. Type of data set: cell-based, Leishmania donovani.
Data set [3] concerns LeMDR1 knockout (LeMDR1 −/−) L. enriettii. Put plainly: Leishmania cell viability (MTS) assay. Type of data set: cell-based, Leishmania enriettii. The conditions noted are these: LeMDR1 −/−. The source says: (§1) Cell lines and Cell Culture.
The test system of data set [4] is LeMDR1 overexpressed L. enriettii (LeV160). Briefly: Leishmania cell viability (MTS) assay. It is filed as cell-based, Leishmania enriettii. The conditions noted are these: LeV160.
Excerpt: as §1

In another data set the test system is MDA435/LCC6 MDR cells. Put plainly: Doxorubicin accumulation. It is filed as cell-based, human. The protocol:
Doxorubicin accumulation. 2.5 ml (10^5 cells/ml) MDA435/LCC6 (both parent and MDR subtype) cells were seeded in each well of 6-well plates. At confluence, culture medium was removed. 2 ml of fresh DMEM with modulators was added and cells were incubated for 30 min at 37° C. Doxorubicin (final concentration of 20 μM) was then added and incubated for 2 h at 37° C. The cells were then harvested by trypsinization.
For P388 (both parent and MDR subtype) cells, 1 ml (10^5 cells) confluent cells were aliquot into Eppendorf tube and pre-incubated with flavone dimers for 30 min at 37° C. Doxorubicin (final concentration of 10 μM) was then added and incubated for 2 h at 37° C. at a final concentration of 10 μM. The cell pellets were washed 3 times with cold PBS by using an Eppendorf micro-centrifuge and lysed with 0.3N HCL in 50% ethanol, and sonicated for 30s. After centrifugation at 10000 rpm/min for 3 min, the supernatant was saved. The fluorescence of doxorubicin was measured using a spectrofluorometer (λexcite=470 nm, λemit=585 nm).
In order to understand whether the modulating activity for various anticancer drugs by different dimers is due to their different ability to modulate P-gp mediated drug efflux, their effects on the accumulation of doxorubicin in both MDA435/LCC6 sensitive and resistant cells were investigated. Doxorubicin was a fluorescent drug substrate of P-gp and was used in this experiment to monitor the P-gp mediated drug efflux. Accumulation of doxorubicin in these cells was determined in the presence or absence of apigenin dimers (10 μM) and monomer (20 μM). Verapamil was used as a positive control.

What is called IC50 is the concentration at which inhibition is half-maximal. In the case of `O=c1cc(-c2ccc(OCCOCCOCCOCCOc3ccc(-c4cc(=O)c5c(O)cc(O)cc5o4)cc3)cc2)oc2cc(O)cc(O)c12` [Compound 9d, 1,13-Bis[4′-((5,7-dihydroxy)-4H-chromen-4-on-2-yl)phenyl]-1,4,7,10,13-pentaoxamidecane], the “increase of cytotoxicity of anticancer drugs” value in data set [1] is listed as 6-50 RF. The values for the intracellular pentamidine concentration with LePentR50 promastigotes (15 μM 9d), in the data set with LePentR50 promastigotes (30 μM 9d) and in the data set with LePentR50 promastigotes (60 μM 9d) were 2.95±0.01 μM pentamidine/mg protein, 4.69±0.51 μM pentamidine/mg protein and 26.6±0.6 μM pentamidine/mg protein, respectively. For the same molecule, the “reduction of SSG resistance level” value in data set [2] (Ld39, 4 μM, FIGS. 17A and 17B) is on record as “back to the level of the sensitive strain”. Moreover, the SSG sensitization in data set [2] (Ld39, FIG. 18B) is on record as 3.9 fold. Besides, in data set [2] (cytotoxicity of compound alone, 72 hrs, read-out: IC50(μM) of synthetic flavonoid, Ld39), the half-inhibitory concentration (IC50) was 10 ± 0.9 µM. Besides, in data set [3], the pentamidine sensitization was 4.1 fold. The “decrease of IC50 of pentamidine” value in data set [4] is recorded as around 1.9 fold. In addition, in the data set on MDA435/LCC6 MDR cells (LCC6 MDR, 10 μM 9d), the “doxorubicin accumulation relative to 9d-treated LCC6 cells” value is given as 97%. Moreover, the “enhancement of doxorubicin accumulation, folds of control” value with MDA435/LCC6 MDR cells (LCC6 MDR, apigenin dimers 10 μM, 20 μM doxorubicin, 2 h) was 5.8 folds and 4 folds. Further, the “intracellular doxorubicin concentration, % of the LCC6” value with MDA435/LCC6 MDR cells (MDA435/LCC6 MDR, 10 μM 9d, FIG. 7B) is on record as 88%.
